# From patent US8178678B2, “Bis-quaternary ammonium salts and methods for modulating neuronal nicotinic acetylcholine receptors” (University of Kentucky Research Foundation, priority 2006, dated 2012)
# Tests used:
# [1] = system: nicotinic receptors mediating S-nicotine-evoked [^3H]DA release in rat striatal slices; test: Inhibition of S-nicotine-evoked [^3H]dopamine release from superfused rat striatal slices; type: cell-based; conditions: 100 nM analog superfused 60 min before NIC 10 μM, rat striatal slices; for inhibition at 0.1 µM: 1 h, read-out: [^3H]DA release, % inhibition of S-nicotine-evoked release
# Experimental: Rat striatal slices (500 μm thickness, 6-8 mg wet weight) were incubated for 30 minutes in Krebs buffer (118 mM NaCl, 4.7 mM KCl, 1.2 mM MgCl2, 1.0 mM NaH2PO4, 1.3 mM CaCl2, 11.1 mM glucose, 25 mM NaHCO3, 0.11 mM L-ascorbic acid, and 0.004 mM disodium EDTA; pH 7.4, and saturated with 95% O2/5% CO2) in a metabolic shaker at 34° C. Slices were rinsed with 15 mL of fresh buffer and incubated for an additional 30 minutes in fresh buffer containing 0.1 μM [^3H]dopamine (DA; 6 slices/3 mL). Subsequently, slices were rinsed with 15 mL of fresh buffer and transferred to a glass superfusion chamber. Slices were superfused (1.0 mL/min) for 60 minutes with Krebs buffer containing nomifensine (10 μM) and pargyline (10 μM) and maintained at 34° C., pH 7.4, with continual aeration (95% O2/5% CO2). Two five minute samples (5 mL each) were collected to determine basal outflow of [^3H]DA. The bis-quaternary ammonium analogs were added to the superfusion buffer after the collection of the second sample and remained in the buffer until 12 consecutive five minute samples were collected. Subsequently, S-nicotine (NIC; 10 μM) was added to the buffer and an additional 12 consecutive five minute samples were collected. At the end of the experiment, each slice was solubilized and the [^3H] content of the tissue determined.
# Radioactivity in the superfusate and tissue samples was determined by liquid scintillation spectroscopy. Fractional release for tritium collected in each sample was divided by the total tritium present in the tissue at the time of sample collection and was expressed as a percentage of total tritium. Basal [^3H]outflow was calculated from the average of the tritium collected in the two five minute samples just before addition of the quaternary analog. The sum of the increase in collected tritium resulting from either exposure to the test compound or exposure to S-nicotine in the absence and presence of the test compound equaled total [^3H]overflow. [^3H]Overflow was calculated by subtracting the [^3H]outflow during an equivalent period of prestimulation from the values in samples collected during and after drug exposure. Inasmuch as the radiolabelled compounds were not separated and identified, the tritium collected in superfusate is referred to as either [3H]outflow or [^3H]overflow, rather than as [^3H]DA. [^3H]Overflow primarily represents [^3H]DA in the presence of nomifensine and pargyline in the superfusion buffer.
# The bis-quaternary ammonium analogs were also evaluated for their ability to inhibit NIC evoked [^3H]DA release. In these experiments, the striatal slices were superfused for 60 minutes with 100 nM concentration of the quaternary analogs prior to NIC (10 μM) exposure. Antagonist activity was evaluated by comparing the NIC-evoked [^3 H]overflow in the absence and presence of the analogs. The relative order of potency of the quaternary analogs for inhibition of NIC-evoked [^3H]DA release from rat striatal slices is illustrated in Table 1.
# ^aData are % inhibition at 100 nM concentration of the bis-quaternary ammonium analogs for at least 1-3 independent experiments; with the exception of when a Ki value in μM is provided, in which case a full concentration effect was evaluated. Specific binding in the [^3H]NIC binding assay is calculated as the difference between the total binding of 3 nM [^3H]NIC and nonspecific binding in the presence of 10 μM cold cytisine. Specific binding for the [^3H]MLA binding assay is calculated as the difference between the total binding of […] [^3H]MLA to the receptors alone and its nonspecific binding in the presence of […] cold S-nicotine. Analog-induced inhibition of S-nicotine-evoked [^3H]DA release is calculated as a percent of that in the absence of the bis-quaternary ammonium analog.
# [2] = target: T1, Rat Striatal Nicotinic Receptors ([^3H]MLA binding sites; α7) (Rattus norvegicus, UniProt Q05941); test: Inhibition of [^3H]MLA (methyllycaconitine) binding; conditions: 100 nM analog, [^3H]MLA, nonspecific S-nicotine, rat brain membranes; for inhibition at 0.1 µM: read-out: [^3H]MLA binding, % inhibition
# T1 construct: Whole brain, excluding cortex and cerebellum, was homogenized in 20 vol of ice-cold buffer; from tissue; host or cells: rat brain membranes (whole brain excluding cortex and cerebellum)
# Experimental: Homogenate was centrifuged (25,000 g, 15 min, 4° C). Pellets were resuspended in 20 vol buffer and incubated at 37° C., for 10 min, cooled to 4° C. and centrifuged (25,000 g, 15 min, 4° C.). Pellets were resuspended and centrifuged using the same conditions. […] Upon use, final pellets were resuspended in 20 vol assay buffer. Samples (250 μl) contained 100-140 μg of membrane protein, 3 nM [^3H]-S-nicotine or 3 nM [^3H]-methyllycaconitine (MLA), and bis-quaternary ammonium analog (100 nM) in assay buffer containing 50 mM Tris. Control was in the absence of analog. In [^3H]-S-nicotine and [^3H]-methyllycaconitine binding assays, nonspecific binding was determined in the presence of 10 μM cytisine and 10 μM S-nicotine, respectively. Incubations proceeded for 60 min at room temperature using 96-well plates and were terminated by harvesting on Unifilter-96 GF/B filter plates presoaked in 0.5% polyethylenimine, using a Packard FilterMate harvester. After washing 5 times with 350 μl ice-cold assay buffer, filter plates were dried (60 min, 4° C.), bottom-sealed, and filled with Packard's MicroScint 20 cocktail (40 μl/well). After 60 min, filter plates were top-sealed, and radioactivity determined using a Packard TopCount. Protein concentrations were determined using the Bradford dye-binding procedure bovine serum albumin as the standard. […]
# [3] = target: T2, Rat Striatal Nicotinic Receptors ([^3H]NIC binding sites; α4β2) (Rattus norvegicus, UniProt P09483+P12390); test: Inhibition of [^3H]NIC binding; conditions: 100 nM analog, 3 nM [^3H]NIC, nonspecific 10 μM cytisine, rat brain membranes; for inhibition at 0.1 µM: 1 h
# T2 construct: Whole brain, excluding cortex and cerebellum, was homogenized in 20 vol of ice-cold buffer; from tissue; host or cells: rat brain membranes (whole brain excluding cortex and cerebellum)
# Experimental: Homogenate was centrifuged (25,000 g, 15 min, 4° C). Pellets were resuspended in 20 vol buffer and incubated at 37° C., for 10 min, cooled to 4° C. and centrifuged (25,000 g, 15 min, 4° C.). Pellets were resuspended and centrifuged using the same conditions. […] Upon use, final pellets were resuspended in 20 vol assay buffer. Samples (250 μl) contained 100-140 μg of membrane protein, 3 nM [^3H]-S-nicotine or 3 nM [^3H]-methyllycaconitine (MLA), and bis-quaternary ammonium analog (100 nM) in assay buffer containing 50 mM Tris. Control was in the absence of analog. In [^3H]-S-nicotine and [^3H]-methyllycaconitine binding assays, nonspecific binding was determined in the presence of 10 μM cytisine and 10 μM S-nicotine, respectively. Incubations proceeded for 60 min at room temperature using 96-well plates and were terminated by harvesting on Unifilter-96 GF/B filter plates presoaked in 0.5% polyethylenimine, using a Packard FilterMate harvester. After washing 5 times with 350 μl ice-cold assay buffer, filter plates were dried (60 min, 4° C.), bottom-sealed, and filled with Packard's MicroScint 20 cocktail (40 μl/well). After 60 min, filter plates were top-sealed, and radioactivity determined using a Packard TopCount. Protein concentrations were determined using the Bradford dye-binding procedure bovine serum albumin as the standard.
# Specific binding in the [^3H]NIC binding assay is calculated as the difference between the total binding of 3 nM [^3H]NIC and nonspecific binding in the presence of 10 μM cold cytisine. […] Analog-induced inhibition of S-nicotine-evoked [^3H]DA release is calculated as a percent of that in the absence of the bis-quaternary ammonium analog.
# T1 sequence (Q05941 23-502): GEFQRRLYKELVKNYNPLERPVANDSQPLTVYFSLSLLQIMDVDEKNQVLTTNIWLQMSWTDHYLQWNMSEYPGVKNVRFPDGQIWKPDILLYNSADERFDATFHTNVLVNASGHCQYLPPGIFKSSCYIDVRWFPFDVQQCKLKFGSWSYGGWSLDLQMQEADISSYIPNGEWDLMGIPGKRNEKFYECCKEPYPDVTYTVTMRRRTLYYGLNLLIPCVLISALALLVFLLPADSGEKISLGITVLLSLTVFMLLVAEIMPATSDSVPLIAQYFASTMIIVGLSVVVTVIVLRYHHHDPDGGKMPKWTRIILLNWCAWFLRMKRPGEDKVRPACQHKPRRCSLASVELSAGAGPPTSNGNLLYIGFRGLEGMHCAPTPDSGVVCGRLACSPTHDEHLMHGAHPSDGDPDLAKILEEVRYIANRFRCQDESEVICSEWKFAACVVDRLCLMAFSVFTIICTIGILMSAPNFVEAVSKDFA
# T2 sequence (P09483 31-630): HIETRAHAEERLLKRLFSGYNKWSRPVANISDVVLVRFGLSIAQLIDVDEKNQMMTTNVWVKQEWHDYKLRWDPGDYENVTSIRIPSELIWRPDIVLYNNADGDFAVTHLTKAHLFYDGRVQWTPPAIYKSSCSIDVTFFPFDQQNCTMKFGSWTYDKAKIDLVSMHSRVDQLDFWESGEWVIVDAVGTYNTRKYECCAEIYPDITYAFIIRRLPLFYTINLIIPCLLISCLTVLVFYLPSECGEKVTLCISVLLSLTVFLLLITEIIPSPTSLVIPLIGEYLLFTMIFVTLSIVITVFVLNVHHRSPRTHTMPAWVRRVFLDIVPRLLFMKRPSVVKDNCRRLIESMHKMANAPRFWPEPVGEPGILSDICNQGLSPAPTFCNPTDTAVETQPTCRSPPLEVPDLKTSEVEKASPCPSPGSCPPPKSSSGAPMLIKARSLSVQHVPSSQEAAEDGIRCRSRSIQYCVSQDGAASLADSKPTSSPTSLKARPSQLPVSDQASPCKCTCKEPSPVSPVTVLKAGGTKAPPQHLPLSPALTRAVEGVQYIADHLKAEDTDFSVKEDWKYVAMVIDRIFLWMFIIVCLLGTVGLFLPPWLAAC
# T2 sequence (P12390 25-500): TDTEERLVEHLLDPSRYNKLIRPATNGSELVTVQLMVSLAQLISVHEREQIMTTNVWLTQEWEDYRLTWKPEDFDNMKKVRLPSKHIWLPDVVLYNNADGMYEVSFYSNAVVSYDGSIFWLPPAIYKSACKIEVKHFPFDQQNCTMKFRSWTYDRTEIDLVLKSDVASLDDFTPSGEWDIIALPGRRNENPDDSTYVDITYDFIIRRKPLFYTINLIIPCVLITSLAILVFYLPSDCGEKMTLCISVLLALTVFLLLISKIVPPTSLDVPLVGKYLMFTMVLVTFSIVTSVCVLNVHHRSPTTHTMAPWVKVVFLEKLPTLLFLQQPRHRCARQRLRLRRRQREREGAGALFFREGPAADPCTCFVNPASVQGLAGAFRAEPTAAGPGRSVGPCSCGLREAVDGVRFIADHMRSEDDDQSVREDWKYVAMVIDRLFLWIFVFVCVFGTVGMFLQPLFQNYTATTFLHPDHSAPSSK
Compound,inhibition at 0.1 µM [1],inhibition at 0.1 µM [2],inhibition at 0.1 µM [3],"[^3H]DA release, % inhibition of S-nicotine-evoked release [1]","[^3H]MLA binding, % inhibition [2]","[^3H]NIC binding, % inhibition [3]"
"OCCCc1ccc[n+](CCCCc2ccc(CCCC[n+]3cccc(CCCO)c3)cc2)c1 [Example 17, N,N′-[1,4-phenylenedi-(4-butanyl)]-bis-[3-(3-hydroxy-propyl)-pyridinium]dibromide]",40%,3%,0%,,,
"CN1CCCC1c1ccc[n+](CCCCCc2ccccc2CCCCC[n+]2cccc([C@@H]3CCCN3C)c2)c1 (stereo partly drawn) [Example 42, 1,2-bis-[5-(2′-S-nicotinium-pentyl)]benzene dibromide]",59%,11%,71%,,,
"c1cc(CCCCC[n+]2ccc3ccccc3c2)cc(CCCCC[n+]2ccc3ccccc3c2)c1 [Example 69, 1,3-bis-(5-isoquinolinium-pentyl)-benzene dibromide]",0%,5.2%,8.8%,,,
"Cc1cccc[n+]1CCCC#Cc1ccccc1C#CCCC[n+]1ccccc1C [Example 23, 1,2-bis-[5-(2-methyl-pyridinium)-pent-1-ynyl]-benzene dibromide]",25%,1.2%,2.1%,,,
"Cc1cc[n+](CCCCCc2ccccc2CCCCC[n+]2ccc(C)cc2)cc1 [Example 36, 1,2-bis-[5-(4-methyl-pyridinium)-pentyl]-benzene dibromide]",11%,3.1%,0%,,,
"Cc1cc[n+](CCCCCc2ccccc2CCCCC[n+]2ccc(C)cc2C)c(C)c1 [Example 37, 1,2-bis-[5-(2,4-dimethyl-pyridinium)-pentyl]-benzene dibromide]",20%,4.8%,0%,,,
"c1ccc(CCCCC[n+]2ccc3ccccc3c2)c(CCCCC[n+]2ccc3ccccc3c2)c1 [Example 41, 1,2-bis-(5-isoquinolinium-pentyl)-benzene dibromide]",54%,0%,1.9%,,,
"C(#Cc1cccc(C#CCCC[n+]2ccccc2)c1)CCC[n+]1ccccc1 [Example 59, 1,3-bis-(5-pyridinium-pent-1-ynyl)-benzene dibromide]",12%,4.4%,3.6%,,,
"Cc1ccc[n+](CCCCCc2cccc(CCCCC[n+]3cccc(C)c3)c2)c1 [Example 63, 1,3-bis-[5-(3-methyl-pyridinium)-pentyl]-benzene dibromide]",45%,6.24%,3.5%,,,
"Cc1cc[n+](CCCCCc2ccccc2CCCCC[n+]2ccc(C)c(C)c2)cc1C [Example 38, 1,2-bis-[5-(3,4-dimethyl-pyridinium)-pentyl]-benzene dibromide]",10%,4.6%,3%,,,
"Cc1cc(C)c[n+](CCC#Cc2ccc(C#CCC[n+]3cc(C)cc(C)c3)cc2)c1 [Example 101, N,N′-[(1,4-phenylene)-bis-(4-butynyl)]-bis-(3,5-dimethyl-pyridinium)dibromide]",14%,0%,0%,,,
"c1cc(CCCCC[n+]2cccc3ccccc32)cc(CCCCC[n+]2cccc3ccccc32)c1 [Example 68, 1,3-bis-(5-quinolinium-pentyl)-benzene dibromide]",16%,14%,8.3%,,,
"N,N′-[(1,1′-biphenyl)-4,4′-di-(3-propanyl)]-bis-[3-(2′-S-1-methyl-pyrrolidin-2-yl)-pyridinium]dibromide [Example 70]",,,,8%,11%,12%
"Cc1cc[n+](CCCC#Cc2ccccc2C#CCCC[n+]2ccc(C)c(C)c2)cc1C [Example 27, 1,2-bis-[5-(3,4-dimethyl-pyridinium)-pent-1-ynyl]-benzene dibromide]",23%,4.2%,4.2%,,,
"Cc1cc[n+](CCCC#Cc2cccc(C#CCCC[n+]3ccc(C)cc3)c2)cc1 [Example 50, 1,3-bis-[5-(4-methyl-pyridinium)-pent-1-ynyl]-benzene dibromide]",26%,6.4%,10%,,,
"Cc1cc[n+](CCCC#Cc2cccc(C#CCCC[n+]3ccc(C)cc3C)c2)c(C)c1 [Example 51, 1,3-bis-[5-(2,4-dimethyl-pyridinium)-pent-1-ynyl]-benzene dibromide]",0%,5.5%,7%,,,
"Cc1cc[n+](CCCCCc2cccc(CCCCC[n+]3ccc(C)cc3)c2)cc1 [Example 64, 1,3-bis-[5-(4-methyl-pyridinium)-pentyl]-benzene dibromide]",27%,3.5%,4.6%,,,
